Measured values from patent US20250339377A1, “PHARMACEUTICAL COMPOSITION OF NUCLEOSIDE-DERIVED COMPOUND, PREPARATION METHOD THEREFOR, AND USE THEREOF” (SHENZHEN ANTIV PHARMA CO., LTD., priority 2022, published 2025).

Columns and labels:
Format in all cases: physicochemical
[1] = Stability investigation - related substance; conditions: API, package N/A, condition N/A
Method: 37167-054A and 37167-054B were packed as described in Table 17 and Table 18, then separately placed under illumination (open), 40° C./75% RH (open), and 40° C./75% RH (closed) conditions for 0 day, 10 days, and 30 days, and detected for the dissolution and related substance.

[2] = Compatibility of raw material and auxiliary material; conditions: 60° C., 25° C./90% RH, 40° C./75% RH, illumination; 30 days
Description: Operation: Common auxiliary materials of solid oral dosage forms were selected to be mixed with the SHEN26 drug substance in different ratios, and the mixtures were placed under different conditions and separately taken out at different time points. The compatibility of the drug substance and the auxiliary materials was judged by taking the appearance, the hygroscopic weight gain, the content and the related substance as indexes. For the ratio of the raw and auxiliary materials, according to “Basic Technical Guidelines for Research of Chemical Drug Formulation” and the specification of the formulation, the auxiliary material with a relatively large amount was determined according to a ratio of main drug:diluent=1:5, the auxiliary material with a moderate amount (such as croscarmellose sodium) was mixed according to a ratio of main drug:disintegrant=1:1, and the auxiliary material with a relatively small amount (such as magnesium stearate) was mixed according to a ratio of main drug:lubricant=5:1. The manufacturer information of the raw and auxiliary materials in the compatibility experiment and the ratio of raw and auxiliary materials are shown in Table 16. […]

[3] = Micromeritic properties of API and formula powders
Description: Detection of micromeritic properties: The micromeritic properties of the SHEN26 compound raw material and the micromeritic properties of the mixed powder obtained by directly mixing the SHEN26 compound and other auxiliary materials were detected.
Preparation method: pulverizing the compound SHEN26, sieving the compound (sieving separately with a 40-mesh sieve and a 60-mesh sieve), mixing with a pharmaceutically acceptable excipient, performing dry granulation, adding an external lubricant, mixing, and filling capsules to give a capsule of the compound SHEN26. Observation of phenomenon: After dry granulation, the micromeritic properties were examined, and the results are shown in Table 12. Dissolution detection: The compound SHEN26 capsules obtained in Example 4 were separately detected for the dissolution, and the results are shown in Table 13.

Related substance % RRT 0.37 [1]: 0.26%
Related substance % RRT 0.54 [1]: 0.35%
Related substance % RRT 1.03 [1]: 0.15%
Related substance % RRT 1.30 [1]: 0.05%
Total impurity % [1]: 0.81%
Compatibility with auxiliary materials (appearance, hygroscopic weight gain, content, related substance) [2]: good compatibility
Angle of repose (°) [3]: 40.98 °
Bulk density [3]: 0.53 g/mL
Carr index (%) [3]: 27.40%
Tap density [3]: 0.73 g/mL
SMILES: CC(C)C(=O)OC[C@H]1O[C@@](C#N)(c2ccc3c(N)ncnn23)[C@H](O)[C@@H]1O [SHEN26]
